Columns and labels:
[1] = test system: kidney tumor cells with PBMCs (1:5); assay: 3D tumor-immune co-culture, combination therapies, change in tumor cell numbers over 3 days (Example 19); conditions: normalized to Day 0, staurosporine 5 μM, axitinib 10 μM + pembrolizumab 10 μg/mL, n=3
[2] = test system: TNBC cell line xenografts (CDXs); conditions: BRGS-HIS mice with TNBC CDXs; cited from earlier work
[3] = test system: 3D tumor-immune culture from a patient with renal cell carcinoma (tumor cells and matched PBMCs); assay: 3D tumor-immune culture, Keytruda treatment compared to CD3 activation, live cell imaging over 5 days (Example 17); format: cell-based, human; conditions: for tumor-containing hydrogel dome volume: 10 μg/mL Keytruda vs CD3-activated/control culture, evident by Day 1
Description: A) An aliquot of pembrolizumab (25 mg/mL) was diluted in PBS to achieve a working stock of 1 mg/mL. 2 μL of this stock is added to the tumor-immune culture to achieve a final dose of 10 μg/mL. In parallel, 2 μL of a 1 mg/mL stock of human anti-IgG4 is added to a negative control tumor-immune culture.
A tumor sample and matched blood sample from a patient with renal cell carcinoma were prepared according to the foregoing Examples and methods. Briefly, PBMCs were isolated from blood and CD8^+ and CD8^− cells were separated, stained, and recombined as previously described. PBMCs were either cultured with 1 μg/mL anti-CD3 or 10 μg/mL Keytruda for 18 hours. Tumors were dissociated and stained and 10,000 cells were encapsulated in hydrogel as previously described. At TO, 100,000 PBMCs from each condition were added to tumor cultures. Live cell imaging, using confocal microscopy, was conducted each day for 5 days and images were analyzed using the disclosed computer vision pipeline. The presented data are from single replicates obtained from one experiment.

CN[C@@H]1C[C@H]2O[C@@](C)([C@@H]1OC)n1c3ccccc3c3c4c(c5c6ccccc6n2c5c31)C(=O)NC4 [Staurosporine]
change in tumor cell count [1]: decreased tumor cell count the most

nivolumab
time after treatment until significant effect on tumor volume relative to vehicle control [2]: ≥ 10 days

pembrolizumab [Keytruda]
clustering of hydrogel-infiltrated CD8+ PBMCs ([3]; 10 μg/mL Keytruda or 1 μg/mL anti-CD3, over 5 days, single replicate): more clustering over time
rate of dome volume shrinking ([3]; 10 μg/mL Keytruda vs CD3-activated sample, Day 1): higher at Day 1
viability of tumor cells / tumor cell death ([3]; 10 μg/mL Keytruda vs CD3-activated sample, evident by Day 2, single replicate): increased tumor cell death
speed of CD8+ PBMCs infiltrated into the hydrogel (migration peak speed) ([3]; 10 μg/mL Keytruda vs CD3-activated sample, over 5 days, single replicate): higher CD8^+ cell migration peak speed
tumor-containing hydrogel dome volume ([3]; single replicate): dome volume shrinks more
tumor-containing hydrogel dome volume ([3]; single replicate, listed as Keytruda/pembrolizumab): measurable, and noticeable, and may be statistically significantly different, by one day after adding the treatment
clustering of hydrogel-infiltrated CD8- and CD8+ PBMCs together ([3]; 10 μg/mL Keytruda vs CD3 activation, throughout 5 days, single replicate): clustered together more
infiltration of CD8+ PBMCs into the tumor-containing hydrogel (absolute counts) ([3]; PBMCs cultured 18 hours with 10 μg/mL Keytruda vs 1 μg/mL anti-CD3, evident as early as Day 1, single replicate): increased infiltration of CD8^+ cells into the tumor-containing hydrogel

From patent US20260056187A1, “METHODS OF FORMING PATIENT-DERIVED 3D CELL CULTURES FOR TRACKING LIVE IMMUNE-TUMOR INTERACTIONS” (OUROTECH, INC., priority 2022, published 2026)
